B1: LIV-I branched chain amino acid transport system (Escherichia coli K-12) (protein)
chain: EDIKVAVVGAMSGPVAQYGDQEFTGAEQAVADINAKGGIKGNKLQIVKYDDACDPKQAVAVANKVVNDGIKYVIGHLCSSSTQPASDIYEDEGILMITPAATAPELTARGYQLILRTTGLDSDQGPTAAKYILEKVKPQRIAIVHDKQQYGEGLARAVQDGLKKGNANVVFFDGITAGEKDFSTLVARLKKENIDFVYYGGYHPEMGQILRQARAAGLKTQFMGPEGVANVSLSNIAGESAEGLLVTKPKNYDQVPANKPIVDAIKAKKQDPSGAFVWTTYAALQSLQAGLNQSDDPAEIAKYLKANSVDTVMGPLTWDEKGDLKGFEFGVFDWHANGTATDAK
notes: whole-cell uptake, ABC transporter

Experiments:
SdaC = molecular target: T1, SdaC (Escherichia coli, UniProt P0AAD6); test: radiolabelled uptake by whole cells, sdaC+ versus sdaC deletion; format: cell-based; details: M9 medium, 0.2% glucose, 37 °C; 100 μM L-serine; strain B2394 versus B2429; labelled compound (14C)
T1 construct: full-length native chromosomal sdaC, no tag; whole-cell uptake in strain lacking the other carriers, compared with its sdaC deletion B2429
T1 sequence (P0AAD6 whole entry): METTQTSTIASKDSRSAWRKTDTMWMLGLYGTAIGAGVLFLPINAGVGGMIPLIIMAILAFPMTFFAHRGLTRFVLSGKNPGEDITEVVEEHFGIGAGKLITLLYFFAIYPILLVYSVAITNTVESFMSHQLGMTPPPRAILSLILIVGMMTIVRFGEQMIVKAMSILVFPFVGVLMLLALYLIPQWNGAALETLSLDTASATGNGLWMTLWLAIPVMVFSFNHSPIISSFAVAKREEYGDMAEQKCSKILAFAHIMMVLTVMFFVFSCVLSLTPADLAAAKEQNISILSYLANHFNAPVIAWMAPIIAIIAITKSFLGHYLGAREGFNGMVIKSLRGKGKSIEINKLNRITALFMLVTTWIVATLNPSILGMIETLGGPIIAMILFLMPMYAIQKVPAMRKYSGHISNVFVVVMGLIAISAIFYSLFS

[1] = substrate: C[C@@H](O)[C@H](N)C(=O)O; test: radiolabelled uptake by whole cells, initial velocity, Lineweaver-Burk; format: cell-based, Escherichia coli; details: M9 medium, 0.2% glucose, 37 °C, strain B2394[pMW-liv] overexpressing LIV-I, labelled compound (14C)

Molecule	radiolabelled uptake by whole cells, sdaC+ versus sdaC deletion (SdaC)	Km [1] [µM]
N[C@@H](CO)C(=O)O [L-serine]	serine transport activity of the B2394 strain possessing SdaC as the sole transporter	
B1		13.0 ± 0.9

— publication PMC10070963 (Frontiers in Microbiology, 2023)
